Experimental data taken from ChEMBL document CHEMBL1201862, “PubChem BioAssay data set” (2004).
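Where inhibition never reached the appropriate level, the endpoint shown equals the highest concentration tested. Otherwise, values were interpolated linearly from a five-concentration, 48-hour dose response in 96-well plates. GI50 is the concentration that inhibits growth by half.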 Activity calls are given as the source filed them. No stated cut-off is given here; in the data, active = GI50 up to about 1.1 µM and inactive = higher.

Key:
Experiment in all cases: growth of human tumour cells (NCI), 48 h
MDA-MB-435 = system: MDA-MB-435
OVCAR-3 = system: OVCAR-3
PC-3 = system: PC-3
OVCAR-4 = system: OVCAR-4
SNB-75 = system: SNB-75
SF-295 = system: SF-295
A549 = system: A549
U-251 = system: U-251
Malme-3M = system: Malme-3M
DU-145 = system: DU-145
SK-MEL-2 = system: SK-MEL-2
CAKI-1 = system: CAKI-1
RXF 393 = system: RXF 393
HT-29 = system: HT-29
CCRF-CEM = system: CCRF-CEM
MCF7 = system: MCF7
A498 = system: A498
SW-620 = system: SW-620
TK-10 = system: TK-10
HL-60 = system: HL-60

Row | SMILES | GI50 (MDA-MB-435) | GI50 (OVCAR-3) | GI50 (PC-3) | GI50 (OVCAR-4) | GI50 (SNB-75) | GI50 (SF-295) | GI50 (A549) | GI50 (U-251) | GI50 (Malme-3M) | GI50 (DU-145) | GI50 (SK-MEL-2) | GI50 (CAKI-1) | GI50 (RXF 393) | GI50 (HT-29) | GI50 (CCRF-CEM) | GI50 (MCF7) | GI50 (A498) | GI50 (SW-620) | GI50 (TK-10) | GI50 (HL-60)
1 | Nc1nc(Cl)c(N)c(NCC2(CO)CCC(OCc3ccccc3)C2)n1 (centres undefined) | 95.9 µM (inactive) | > 100 µM (inactive) | > 100 µM (inactive) | 43.4 µM (inactive) | > 100 µM (inactive) | 4.9 µM (inactive) | > 100 µM (inactive) | > 100 µM (inactive) | 39.5 µM (inactive) | > 100 µM (inactive) | 84.1 µM (inactive) | > 100 µM (inactive) | 8.85 µM (inactive) | > 100 µM (inactive) | > 100 µM (inactive) | 47.8 µM (inactive) | 0.982 µM (active) | > 100 µM (inactive) | > 100 µM (inactive) | –
2 | COc1cc(CNNC(N)=S)cc(OC)c1OC | > 100 µM (inactive) | > 100 µM (inactive) | > 100 µM (inactive) | – | > 100 µM (inactive) | > 100 µM (inactive) | > 100 µM (inactive) | > 100 µM (inactive) | > 100 µM (inactive) | > 100 µM (inactive) | – | 6.27 µM (inactive) | > 100 µM (inactive) | > 100 µM (inactive) | > 100 µM (inactive) | > 100 µM (inactive) | > 100 µM (inactive) | > 100 µM (inactive) | > 100 µM (inactive) | > 100 µM (inactive)
3 | CN(C)c1ccc2c3c(c(=O)oc2c1)CCC3 | 57.9 µM (inactive) | > 100 µM (inactive) | 90.4 µM (inactive) | > 100 µM (inactive) | – | 92.7 µM (inactive) | 51.3 µM (inactive) | 88.3 µM (inactive) | – | 80.4 µM (inactive) | > 100 µM (inactive) | 43.8 µM (inactive) | 64 µM (inactive) | 44.8 µM (inactive) | 75 µM (inactive) | 28.2 µM (inactive) | 29.4 µM (inactive) | > 100 µM (inactive) | 65.3 µM (inactive) | 26.9 µM (inactive)
4 | COc1ccccc1-c1nc(O)c2ccccc2n1 | > 100 µM (inactive) | > 100 µM (inactive) | > 100 µM (inactive) | > 100 µM (inactive) | > 100 µM (inactive) | > 100 µM (inactive) | > 100 µM (inactive) | > 100 µM (inactive) | > 100 µM (inactive) | > 100 µM (inactive) | > 100 µM (inactive) | > 100 µM (inactive) | > 100 µM (inactive) | – | > 100 µM (inactive) | > 100 µM (inactive) | > 100 µM (inactive) | > 100 µM (inactive) | – | –
5 | COC(=O)[C@]12CC[C@H]3CN(C(=O)OCc4ccccc4)[C@H]([C@H]31)[C@H](c1ccco1)N2 | 19.4 µM (inactive) | 51.6 µM (inactive) | 33.2 µM (inactive) | 0.61 µM (active) | – | 32.1 µM (inactive) | 37.2 µM (inactive) | 84.7 µM (inactive) | 23.3 µM (inactive) | > 100 µM (inactive) | 55.1 µM (inactive) | 35.8 µM (inactive) | > 100 µM (inactive) | 81.3 µM (inactive) | 33.4 µM (inactive) | 42.3 µM (inactive) | 0.0226 µM (active) | > 100 µM (inactive) | > 100 µM (inactive) | 28.8 µM (inactive)
6 | CC1(C)CC(=O)C2(CC(CSc3ccccc3)C(CS(=O)(=O)c3ccccc3)C2)C(=O)C1 (centres undefined) | > 100 µM (inactive) | > 100 µM (inactive) | 30.8 µM (inactive) | > 100 µM (inactive) | 4.85 µM (inactive) | > 100 µM (inactive) | > 100 µM (inactive) | > 100 µM (inactive) | – | > 100 µM (inactive) | > 100 µM (inactive) | > 100 µM (inactive) | > 100 µM (inactive) | 78.3 µM (inactive) | > 100 µM (inactive) | > 100 µM (inactive) | > 100 µM (inactive) | > 100 µM (inactive) | > 100 µM (inactive) | –
7 | CN(C(=O)C1=CCCCCC1)c1ccccc1I | 40.2 µM (inactive) | 49.7 µM (inactive) | 35 µM (inactive) | 18.2 µM (inactive) | 13.5 µM (inactive) | 44.9 µM (inactive) | 62.1 µM (inactive) | 44.9 µM (inactive) | – | 50.7 µM (inactive) | 32.4 µM (inactive) | 64.4 µM (inactive) | > 100 µM (inactive) | – | 41.7 µM (inactive) | 51.5 µM (inactive) | 0.201 µM (active) | 40.6 µM (inactive) | – | 13.7 µM (inactive)
8 | Cc1ccc(Nc2nnc(-c3ccc4c(c3)OCO4)o2)c(C)c1 | > 100 µM (inactive) | > 100 µM (inactive) | 50.1 µM (inactive) | > 100 µM (inactive) | > 100 µM (inactive) | > 100 µM (inactive) | > 100 µM (inactive) | 39.2 µM (inactive) | > 100 µM (inactive) | > 100 µM (inactive) | > 100 µM (inactive) | > 100 µM (inactive) | > 100 µM (inactive) | > 100 µM (inactive) | – | 38.8 µM (inactive) | 39.6 µM (inactive) | > 100 µM (inactive) | > 100 µM (inactive) | –
